# Data: the supplement of paper PMC10307832
# Compound: COc1cccc2cc(-c3nc([C@H]4CC[C@H](C(=O)O)CC4)n4ncnc(N)c34)[nH]c12 [OSI-027] + Nc1ncn([C@H]2C[C@H](O)[C@@H](CO)O2)c(=O)n1 [Decitabine] (partner 2 µM)
# Experiment: relative viability (nuclei count vs DMSO), 5 days (fraction); higher = more cells survive
# Details: first compound 0.01 µM
# Summary of the method: (§1)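 Five library-drug doses in √10 steps were combined with a fixed anchor-drug dose, or a single drug was given alone, by pin tool to lung cancer cell lines in 1536-well plates the day after seeding. Nuclei were stained and counted after 5 days. Relative viability is the nuclei count in treated wells over that in vehicle wells, taken as the median of duplicate plates.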
row,Cell Line,relative viability
1,HARA,0.529
2,NCI-H3122,0.415
3,NCI-H358,0.191
4,COR-L 105,0.739
5,LCLC-97TM1,0.256
6,NCI-H520,0.583
7,NCI-H23,0.296
8,HCC-827,0.304
9,NCI-H2347,0.639
10,LXF-289,0.378
11,NCI-H1666,0.719
12,RERF-LC-KJ,0.617
13,NCI-H650,0.303
14,NCI-H322M,0.66
15,NCI-H596,1.1
16,201T,0.885
17,SK-MES-1,0.362
18,NCI-H441,0.266

# Same assay, conditions: first compound 0.03162 µM
row,Cell Line,relative viability
1,HARA,0.432
2,NCI-H3122,0.547
3,NCI-H358,0.182
4,COR-L 105,0.56
5,LCLC-97TM1,0.23
6,NCI-H520,0.482
7,NCI-H23,0.336
8,HCC-827,0.291
9,NCI-H2347,0.635
10,LXF-289,0.355
11,NCI-H1666,0.7
12,RERF-LC-KJ,0.664
13,NCI-H650,0.317
14,NCI-H322M,0.658
15,NCI-H596,1.08
16,201T,0.832
17,SK-MES-1,0.36
18,NCI-H441,0.263

# Same assay, conditions: first compound 0.1 µM
row,Cell Line,relative viability
1,HARA,0.558
2,NCI-H3122,0.457
3,NCI-H358,0.199
4,COR-L 105,0.603
5,LCLC-97TM1,0.195
6,NCI-H520,0.47
7,NCI-H23,0.305
8,HCC-827,0.3
9,NCI-H2347,0.621
10,LXF-289,0.379
11,NCI-H1666,0.741
12,RERF-LC-KJ,0.668
13,NCI-H650,0.288
14,NCI-H322M,0.694
15,NCI-H596,1.1
16,201T,0.842
17,SK-MES-1,0.304
18,NCI-H441,0.261

# Same assay, conditions: first compound 0.3162 µM
row,Cell Line,relative viability
1,HARA,0.422
2,NCI-H3122,0.345
3,NCI-H358,0.232
4,COR-L 105,0.639
5,LCLC-97TM1,0.174
6,NCI-H520,0.363
7,NCI-H23,0.278
8,HCC-827,0.329
9,NCI-H2347,0.577
10,LXF-289,0.367
11,NCI-H1666,0.624
12,RERF-LC-KJ,0.538
13,NCI-H650,0.3
14,NCI-H322M,0.662
15,NCI-H596,1.03
16,201T,0.887
17,SK-MES-1,0.307
18,NCI-H441,0.293

# Same assay, conditions: first compound 1 µM
row,Cell Line,relative viability
1,HARA,0.346
2,NCI-H3122,0.154
3,NCI-H358,0.178
4,COR-L 105,0.647
5,LCLC-97TM1,0.22
6,NCI-H520,0.228
7,NCI-H23,0.268
8,HCC-827,0.277
9,NCI-H2347,0.454
10,LXF-289,0.349
11,NCI-H1666,0.555
12,RERF-LC-KJ,0.426
13,NCI-H650,0.276
14,NCI-H322M,0.542
15,NCI-H596,0.82
16,201T,0.8
17,SK-MES-1,0.223
18,NCI-H441,0.259

# Compound: CCCS(=O)(=O)Nc1ccc(F)c(C(=O)c2c[nH]c3ncc(-c4ccc(Cl)cc4)cc23)c1F [Vemurafenib] + C[C@]1(O)C[C@@H](c2nc(-c3ccc4ccc(-c5ccccc5)nc4c3)c3c(N)nccn32)C1 [Linsitinib] (partner 1 µM)
# Experiment: as above
# Details: first compound 0.03162 µM
# Summary of the method: as §1
row,Cell Line,relative viability
1,HARA,0.942
2,NCI-H3122,1
3,NCI-H358,0.686
4,COR-L 105,1
5,LCLC-97TM1,0.181
6,NCI-H520,1.06
7,NCI-H23,0.621
8,HCC-827,0.878
9,NCI-H2347,0.941
10,LXF-289,0.877
11,NCI-H1666,0.853
12,RERF-LC-KJ,0.833
13,NCI-H650,0.709
14,NCI-H322M,0.851
15,NCI-H596,1.07
16,201T,0.994
17,SK-MES-1,1.06
18,NCI-H441,0.555

# Same assay, conditions: first compound 0.1 µM
row,Cell Line,relative viability
1,NCI-H3122,0.895
2,LCLC-97TM1,0.212
3,NCI-H520,1.13
4,NCI-H23,0.605
5,NCI-H2347,1.01
6,LXF-289,0.919
7,RERF-LC-KJ,0.86
8,NCI-H650,0.83
9,NCI-H596,0.918
10,201T,0.969
11,SK-MES-1,0.892
12,NCI-H441,0.527

# Same assay, conditions: first compound 0.3162 µM
row,Cell Line,relative viability
1,HARA,0.987
2,NCI-H3122,1.01
3,NCI-H358,1
4,COR-L 105,1.3
5,LCLC-97TM1,0.175
6,NCI-H520,1.02
7,NCI-H23,0.715
8,HCC-827,0.924
9,NCI-H2347,0.76
10,LXF-289,0.992
11,NCI-H1666,0.922
12,RERF-LC-KJ,0.924
13,NCI-H650,0.297
14,NCI-H322M,0.964
15,NCI-H596,1.12
16,201T,1.06
17,SK-MES-1,1.03
18,NCI-H441,0.491

# Same assay, conditions: first compound 1 µM
row,Cell Line,relative viability
1,HARA,0.771
2,NCI-H3122,1.13
3,NCI-H358,0.79
4,COR-L 105,1.17
5,LCLC-97TM1,0.157
6,NCI-H520,0.956
7,NCI-H23,0.59
8,HCC-827,0.926
9,NCI-H2347,0.964
10,LXF-289,1.04
11,NCI-H1666,0.841
12,RERF-LC-KJ,0.923
13,NCI-H650,0.595
14,NCI-H322M,0.885
15,NCI-H596,1.06
16,201T,0.989
17,SK-MES-1,1.07
18,NCI-H441,0.345

# Compound: CCCS(=O)(=O)Nc1ccc(F)c(C(=O)c2c[nH]c3ncc(-c4ccc(Cl)cc4)cc23)c1F [Vemurafenib] + CCNC(=O)c1noc(-c2cc(C(C)C)c(O)cc2O)c1-c1ccc(CN2CCOCC2)cc1 [Luminespib] (partner 0.01 µM)
# Experiment: as above
# Details: first compound 0.03162 µM
# Summary of the method: as §1
row,Cell Line,relative viability
1,HARA,0.482
2,NCI-H3122,0.138
3,NCI-H358,0.27
4,COR-L 105,0.738
5,LCLC-97TM1,0.811
6,NCI-H520,0.187
7,NCI-H23,0.194
8,HCC-827,0.654
9,NCI-H2347,0.626
10,LXF-289,0.647
11,NCI-H1666,0.933
12,RERF-LC-KJ,1.26
13,NCI-H650,0.72
14,NCI-H322M,0.861
15,NCI-H596,0.984
16,201T,1.01
17,SK-MES-1,0.866
18,NCI-H441,0.373

# Same assay, conditions: first compound 0.1 µM
row,Cell Line,relative viability
1,HARA,0.6
2,NCI-H3122,0.123
3,LCLC-97TM1,0.768
4,NCI-H520,0.231
5,NCI-H23,0.211
6,NCI-H2347,0.164
7,LXF-289,0.584
8,NCI-H1666,0.877
9,RERF-LC-KJ,0.991
10,NCI-H650,0.852
11,NCI-H596,1.1
12,201T,1.05
13,SK-MES-1,0.553
14,NCI-H441,0.245

# Same assay, conditions: first compound 0.3162 µM
row,Cell Line,relative viability
1,HARA,0.638
2,NCI-H3122,0.0825
3,NCI-H358,0.504
4,LCLC-97TM1,0.807
5,NCI-H520,0.221
6,NCI-H23,0.166
7,HCC-827,0.537
8,NCI-H2347,0.552
9,LXF-289,0.661
10,NCI-H1666,1.02
11,RERF-LC-KJ,1.26
12,NCI-H596,1.01
13,201T,1.14
14,SK-MES-1,0.646
15,NCI-H441,0.392

# Same assay, conditions: first compound 1 µM
row,Cell Line,relative viability
1,HARA,0.814
2,NCI-H3122,0.101
3,NCI-H358,0.267
4,COR-L 105,0.935
5,LCLC-97TM1,0.817
6,NCI-H520,0.233
7,NCI-H23,0.228
8,HCC-827,0.669
9,NCI-H2347,0.71
10,LXF-289,0.689
11,NCI-H1666,0.966
12,RERF-LC-KJ,1.31
13,NCI-H650,0.637
14,NCI-H322M,0.825
15,NCI-H596,0.958
16,201T,1.03
17,SK-MES-1,0.745
18,NCI-H441,0.316

# Compound: Cc1nc(NC(=O)N2CCC[C@H]2C(N)=O)sc1-c1ccnc(C(C)(C)C(F)(F)F)c1 [Alpelisib] + CC(=O)Nc1cccc(-n2c(=O)n(C3CC3)c(=O)c3c(Nc4ccc(I)cc4F)n(C)c(=O)c(C)c32)c1 [Trametinib] (partner 0.02 µM)
# Experiment: as above
# Details: first compound 0.04 µM
# Summary of the method: as §1
row,Cell Line,relative viability
1,HARA,0.633
2,NCI-H3122,0.201
3,NCI-H358,0.138
4,COR-L 105,0.422
5,LCLC-97TM1,0.194
6,NCI-H520,0.62
7,NCI-H23,0.287
8,HCC-827,0.547
9,NCI-H2347,0.29
10,LXF-289,0.632
11,NCI-H1666,0.799
12,RERF-LC-KJ,0.86
13,NCI-H650,0.996
14,NCI-H322M,0.516
15,NCI-H596,0.801
16,201T,0.7
17,SK-MES-1,0.59
18,NCI-H441,0.472

# Same assay, conditions: first compound 0.1265 µM
row,Cell Line,relative viability
1,HARA,0.732
2,NCI-H3122,0.221
3,NCI-H358,0.118
4,COR-L 105,0.458
5,LCLC-97TM1,0.167
6,NCI-H520,0.574
7,NCI-H23,0.354
8,HCC-827,0.504
9,NCI-H2347,0.285
10,LXF-289,0.632
11,NCI-H1666,0.841
12,RERF-LC-KJ,0.933
13,NCI-H650,0.921
14,NCI-H322M,0.497
15,NCI-H596,0.815
16,201T,0.723
17,SK-MES-1,0.523
18,NCI-H441,0.383

# Same assay, conditions: first compound 0.4 µM
row,Cell Line,relative viability
1,HARA,0.529
2,NCI-H3122,0.172
3,NCI-H358,0.128
4,COR-L 105,0.493
5,LCLC-97TM1,0.165
6,NCI-H520,0.549
7,NCI-H23,0.252
8,HCC-827,0.492
9,NCI-H2347,0.394
10,LXF-289,0.71
11,NCI-H1666,0.903
12,RERF-LC-KJ,0.895
13,NCI-H650,0.962
14,NCI-H322M,0.49
15,NCI-H596,0.708
16,201T,0.716
17,SK-MES-1,0.534
18,NCI-H441,0.388

# Same assay, conditions: first compound 1.265 µM
row,Cell Line,relative viability
1,HARA,0.257
2,NCI-H3122,0.181
3,NCI-H358,0.11
4,COR-L 105,0.37
5,LCLC-97TM1,0.133
6,NCI-H520,0.491
7,NCI-H23,0.286
8,HCC-827,0.401
9,NCI-H2347,0.244
10,LXF-289,0.609
11,NCI-H1666,0.784
12,RERF-LC-KJ,0.645
13,NCI-H650,0.749
14,NCI-H322M,0.367
15,NCI-H596,0.48
16,201T,0.645
17,SK-MES-1,0.334
18,NCI-H441,0.247

# Same assay, conditions: first compound 4 µM
row,Cell Line,relative viability
1,HARA,0.265
2,NCI-H3122,0.136
3,NCI-H358,0.1
4,COR-L 105,0.447
5,LCLC-97TM1,0.159
6,NCI-H520,0.429
7,NCI-H23,0.233
8,HCC-827,0.33
9,NCI-H2347,0.232
10,LXF-289,0.694
11,NCI-H1666,0.71
12,RERF-LC-KJ,0.693
13,NCI-H650,0.774
14,NCI-H322M,0.411
15,NCI-H596,0.44
16,201T,0.586
17,SK-MES-1,0.385
18,NCI-H441,0.263
